In patent publication US10231956B2, “3-(1H-pyrrolo[3,2-C]pyridin-2-YL)-1 H-pyrazolo[4,3-B]pyridines and therapeutic uses thereof” (Samumed, LLC, priority 2015, dated 2019) one finds EC50 and inhibition data, which are given here for nine compounds.

Bounds are passed on as bounds.

What all share (format): cell-based
In experiment [1] the test system is primary human fibroblasts derived from IPF patients (LL29 cells). In words: Inhibition of fibrotic process: αSMA staining in TGF-β1 treated LL29 fibroblasts. Particulars: Fibroblast, 96 h, TGF-β1 20 ng/mL, 4 days, % cells positive for αSMA. The method, boiled down: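 LL29 cells at 1,500/well in F12 with 1% FBS, compounds at 1 μM–1.87 nM (11-point, 0.1% DMSO), TGF-β1 20 ng/mL added 1 h later, 4 days at 37 °C. SYTOX-positive cells excluded; % αSMA-positive cells by immunofluorescence imaging, normalized to TGF-β1/DMSO wells, triplicates fitted for EC50; above 10 μM, % inhibition at 10 μM given.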

Experiment [2] has as its system Wnt activity (Sp5-Luc reporter, SW480 colon carcinoma cells). As to the kind of experiment: Sp5-Luc reporter gene screening assay for Wnt activity in SW480 cells. Conditions: Homo sapiens; for EC50: luminescence, overnight incubation. The method, boiled down: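 First, hygromycin-selected SW480 Sp5-Luc reporter cells are seeded in medium with 1% fetal bovine serum and exposed overnight to compound (up to 10 μM, 0.1% DMSO). Next, luciferase signal is read by luminescence. Finally, EC50 is fitted, or percent inhibition at 10 μM is reported above 10 μM.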
(In general: Reporter assays use an easily measured gene product as a stand-in for the process of interest.)

The subject of the next experiment is SW480 colon cancer cells. As to the kind of experiment: Cell viability assay (CellTiter-Blue) in SW480 colon cancer cells. Conditions: Homo sapiens; for EC50: 96 h, four days, CellTiter-Blue. The method, boiled down: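 SW480 colon cancer cells (~2×10^3/well) exposed to 8-point 1:3 dilutions from 10 μM to 0.0045 μM for four days at 37 °C/5% CO2. Viability read by resazurin (CellTiter-Blue) fluorescence after ~3 h, Ex 560/Em 590 nm. EC50 from non-linear regression; percent inhibition at 10 μM given when EC50 >10 μM.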
In general terms: The colour change of resazurin is a common sign of viable cells or microbes.

Setting [3] is: given for EC50 >10 μM, 10 μM, read-out: percent inhibition at 10 μM.

As usually defined, the EC50 is the concentration giving half of the maximal effect. With `FC1(F)CCN(Cc2cncc(-c3ccc4[nH]nc(-c5cc6c(N7CCCCC7)nccc6[nH]5)c4n3)c2)C1` [Compound 194, 5-(5-((3,3-Difluoropyrrolidin-1-yl)methyl)pyridin-3-yl)-3-(4-(piperidin-1-yl)-1H-pyrrolo[3,2-c]pyridin-2-yl)-1H-pyrazolo[4,3-b]pyridine], the EC50 in experiment [1] is 1030 nM; in experiment [2] it was 3600 nM; in the experiment on SW480 colon cancer cells it was 1900 nM.

For the compound `Cc1ccncc1-c1ccc2[nH]nc(-c3cc4c(-c5cc(F)cc(CNS(C)(=O)=O)c5)nccc4[nH]3)c2n1` [Compound 481, N-(3-Fluoro-5-(2-(5-(4-methylpyridin-3-yl)-1H-pyrazolo[4,3-b]pyridin-3-yl)-1H-pyrrolo[3,2-c]pyridin-4-yl)benzyl)methanesulfonamide], the EC50 amounted to 311 nM in experiment [1], 313 nM in experiment [2] and 1040 nM in the experiment with SW480 colon cancer cells.

With `Fc1cccc(-c2nccc3[nH]c(-c4n[nH]c5ccc(-c6cncc(OCc7ccccc7)c6)nc45)cc23)c1` [Compound 518, 5-(5-(Benzyloxy)pyridin-3-yl)-3-(4-(3-fluorophenyl)-1H-pyrrolo[3,2-c]pyridin-2-yl)-1H-pyrazolo[4,3-b]pyridine], the EC50 in experiment [1] turned out to be 1040 nM; in experiment [2] it was 4410 nM; in the experiment on SW480 colon cancer cells, 1360 nM.

One may read the inhibition as the relative decrease from the control value, in per cent. Take `Fc1cccc(-c2nccc3[nH]c(-c4n[nH]c5ccc(-c6cccnc6)nc45)cc23)c1` [Compound 4, 3-(4-(3-Fluorophenyl)-1H-pyrrolo[3,2-c]pyridin-2-yl)-5-(pyridin-3-yl)-1H-pyrazolo[4,3-b]pyridine]: the EC50 was 427 nM in experiment [1], 1490 nM in experiment [2] and more than 10000 nM in the experiment on SW480 colon cancer cells. In the experiment with SW480 colon cancer cells (setting [3]), the inhibition at 10 µM came out at 25%.

As for `Fc1ccc(-c2nccc3[nH]c(-c4n[nH]c5ccc(-c6cncc(OC7CCNCC7)c6)nc45)cc23)cc1` [Compound 528, 3-(4-(4-Fluorophenyl)-1H-pyrrolo[3,2-c]pyridin-2-yl)-5-(5-(piperidin-4-yloxy)pyridin-3-yl)-1H-pyrazolo[4,3-b]pyridine], the EC50 is 1440 nM in experiment [1], 3830 nM in experiment [2] and 5220 nM in the experiment with SW480 colon cancer cells.

As for `Fc1ccc(-c2nccc3[nH]c(-c4n[nH]c5ccc(-c6cncc(CN7CCC(F)(F)C7)c6)nc45)cc23)cc1` [Compound 54, 5-(5-((3,3-Difluoropyrrolidin-1-yl)methyl)pyridin-3-yl)-3-(4-(4-fluorophenyl)-1H-pyrrolo[3,2-c]pyridin-2-yl)-1H-pyrazolo[4,3-b]pyridine], the concentration for a half-maximal effect (EC50) worked out at 521 nM in experiment [1], 599 nM in experiment [2] and 516 nM in the experiment on SW480 colon cancer cells.

As to `CCCCC(=O)Nc1cncc(-c2ccc3[nH]nc(-c4cc5c(N6CCCCC6)nccc5[nH]4)c3n2)c1` [Compound 187, N-(5-(3-(4-(Piperidin-1-yl)-1H-pyrrolo[3,2-c]pyridin-2-yl)-1H-pyrazolo[4,3-b]pyridin-5-yl)pyridin-3-yl)pentanamide], the EC50 in experiment [1] is 2220 nM; in experiment [2], more than 10000 nM; in the experiment on SW480 colon cancer cells, 4460 nM. In addition, the inhibition at 10 µM in experiment [2] (setting [3]) is 42.2%.

With `c1cncc(-c2ccc3[nH]nc(-c4cc5c(N6CCCCC6)nccc5[nH]4)c3n2)c1` [Compound 172, 3-(4-(Piperidin-1-yl)-1H-pyrrolo[3,2-c]pyridin-2-yl)-5-(pyridin-3-yl)-1H-pyrazolo[4,3-b]pyridine], the EC50 in experiment [1] was 89 nM; in experiment [2], 411 nM; in the experiment on SW480 colon cancer cells, 543 nM.

As to `CN1CCN(c2nccc3[nH]c(-c4n[nH]c5ccc(-c6cncc(CN7CCCCC7)c6)nc45)cc23)CC1` [Compound 239, 3-(4-(4-methylpiperazin-1-yl)-1H-pyrrolo[3,2-c]pyridin-2-yl)-5-(5-(piperidin-1-ylmethyl)pyridin-3-yl)-1H-pyrazolo[4,3-b]pyridine], the values for the EC50 (in experiment [1]; in experiment [2]; in the experiment with SW480 colon cancer cells) were 1500 nM, 4280 nM and 1850 nM, respectively.
